Entries after “also recorded” stand apart in the source; their conditions may differ.
Columns and labels:
[1] = test system: human chondrocyte cell line-C28; assay: gene expression in human chondrocyte cell line C28 treated with 3TC; assay type: cell-based
Description: Both miRNA and mRNA were extracted using miRNeasy Mini Kit (Qiagen®, Germantown, Md., USA) and reversely transcribed using miScriptIIRT Kit (Qiagen®, Germantown, Md., USA) according to manufacturer's instruction. qPCR was performed using SYBR Green PCR master mix (Qiagen®, Germantown, Md., USA) on a Bio-Rad CFX96 real-time PCR detection system (Bio-Rad®, Hercules, Calif., USA). Amplification conditions are as follows: 95° C. for 10 min, 40 cycles of 95° C. for 10″, 55° C. for 30″, and 72° C. for 30″. 18S ribosomal or GAPDH RNA was used as an internal control gene to normalize the mRNAs level. The ubiquitously expressed snRNA U6 was used as an endogenous control for miRNAs level. Primers were synthesized by Integrated DNA Technologies (http://www.idtdna.com). The primers for miR-365 were purchased from Qiagen. Fold changes of mRNA and miRNAs were calculated by the 2^^(ΔΔCt) method and normalized to 18S/GAPDH or U6 snRNA, respectively. […]

[2] = test system: C28 transiently over-express miR-365; assay: C28 transiently over-expressing miR-365 treated with 3TC, RT-qPCR; assay type: cell-based, human
Description: Cells were seeded onto desired size plates to reach 70-90% confluence and transfected with miR-365 mimic or miRNA mimic negative control or miR-365 inhibitor or inhibitor negative control (Dharmacon®, Lafayette, Colo., USA). Lipofectamine 3000 (Invitrogen®, Waltham, Mass., USA) was used as transfection reagents. Medium is changed 24 hrs after transfection. 48 hrs post transfection, cells were lysated in either QIAzol for RNA purification and real-time PCR analysis or ice-cold lysis buffer containing protease inhibitor and phosphatase inhibitor for western blot analysis. MiR-365 mimic, miRNA mimic negative control, miR-365 inhibitor and inhibitor negative control were typically used at a final concentration of 25 nM unless otherwise stated.
Both miRNA and mRNA were extracted using miRNeasy Mini Kit (Qiagen®, Germantown, Md., USA) and reversely transcribed using miScriptIIRT Kit (Qiagen®, Germantown, Md., USA) according to manufacturer's instruction. qPCR was performed using SYBR Green PCR master mix (Qiagen®, Germantown, Md., USA) on a Bio-Rad CFX96 real-time PCR detection system (Bio-Rad®, Hercules, Calif., USA). Amplification conditions are as follows: 95° C. for 10 min, 40 cycles of 95° C. for 10″, 55° C. for 30″, and 72° C. for 30″. 18S ribosomal or GAPDH RNA was used as an internal control gene to normalize the mRNAs level. The ubiquitously expressed snRNA U6 was used as an endogenous control for miRNAs level. Primers were synthesized by Integrated DNA Technologies (http://www.idtdna.com). The primers for miR-365 were purchased from Qiagen. Fold changes of mRNA and miRNAs were calculated by the 2^^(ΔΔCt) method and normalized to 18S/GAPDH or U6 snRNA, respectively.

miR-365 Tg mice = assay: primary OA model: miR-365 Tg mice given oral 3TC for 4 months; assay type: in vivo, mouse; settings: for tibial subchondral BV/TV / connectivity density of subchondral bone / trabecular number of subchondral bone / trabecular separation of subchondral bone: microCT
[3] = test system: mouse primary chondrocytes; assay: RT-qPCR gene expression in mouse primary chondrocytes treated with 3TC or FTC at various dosages; assay type: cell-based; settings: mouse chondrocytes (FIG. 3H), western blot Line-1-ORF1
[4] = human chondrocytes C28, RNA level, various dosages
[5] = human chondrocytes over-expressing miR-365, various concentrations
[6] = miR-365 Tg mice, 3TC for 4 months, RT-qPCR
[7] = miR-365 Tg mice, 3TC for four months

## Nc1ccn([C@@H]2CS[C@H](CO)O2)c(=O)n1 [3TC, lamivudine]
[1]; [4]
  Acan expression: promotes; also recorded: stimulated
  Adamts5 expression: inhibited
  COL10 (COL10A1) expression: inhibited
  IHH expression: inhibits
  Line-1 expression: inhibited
  MMP13 expression: inhibited
[1]; human chondrocytes, RNA level
  COL2A1 expression: stimulated
[2]; [5]
  ACAN suppression by miR-365: rectifies
  miR-365 induced up-regulation of ADAMTS5: completely abolishes
  miR-365 induced up-regulation of COL10: completely abolishes
  miR-365 induced up-regulation of IHH: completely abolishes
  miR-365 induced up-regulation of LINE-1: completely abolishes
[2]; miR-365 transfected human chondrocytes (FIG. 3O-3T)
  effect of miR-365 on L1, ADAMTS5, IHH, COL10A1 and ACAN levels: abolished and in some cases even reversed
miR-365 Tg mice; 6-month-old miR-365 Tg mice, 3TC for 4 months
  early onset of OA / OA pathogenesis (Safranin O staining, OARSI quantification): abolished; also recorded: prevented early onset of OA
miR-365 Tg mice; Cre control mice, 3TC 4 months
  tibial subchondral BV/TV: did not alter
miR-365 Tg mice; Cre mice, 3TC 4 months
  connectivity density of subchondral bone: increased
  trabecular number of subchondral bone: increased
  trabecular separation of subchondral bone: decreased
miR-365 Tg mice; miR-365 Tg mice, 3TC 4 months
  subchondral BMD: without decreasing
  connectivity density of subchondral bone: no effect
  tibial subchondral BV/TV: did not alter
  trabecular number of subchondral bone: no effect
  trabecular separation of subchondral bone: no effect
miR-365 Tg mice; [6]
  Acan levels in articular cartilage: unchanged
  Adamts5 expression in articular cartilage: significantly inhibited; also recorded: significantly suppressed
  Alu expression in articular cartilage: significantly suppressed
  Col10 (Col10a1) expression in articular cartilage: significantly inhibited; also recorded: significantly suppressed
  Inf-α expression in articular cartilage: significantly inhibited
  Line-1 (Line-1-ORF2) expression in articular cartilage: significantly inhibited; also recorded: abolished; also recorded: significantly suppressed
  Sqstm1 expression in articular cartilage: inhibition was abolished; also recorded: significantly up-regulated
  Zc3hav1 (Zac3hav1) expression in articular cartilage: inhibition was abolished; also recorded: significantly up-regulated
miR-365 Tg mice; [7]
  Dicer mRNA level in cartilage: inhibition was abolished
  Prkdc mRNA level in cartilage: inhibition was abolished
miR-365 Tg mice; miR-365 Tg mice, oral 3TC for 4 months, RT-qPCR
  miR-365 expression in articular cartilage: abolished; also recorded: significantly suppressed
miR-365 Tg mice; mice treated with 3TC from 2-month old till 6-month old
  Ihh expression in vivo: suppresses only Line-1 but not Ihh
[3]
  L1 expression at protein level: inhibited
